# The supplement of paper PMC11208160
# Assay: recombinant barcode read abundance after kanamycin selection (control-corrected) (log10(CPM+1)); higher = more efficient recombination; sequences stand for … in AGTGCAGAGAAAATCGGCCAGTTTTCTCTGCCTGCAGTCCGCATGCCGT…AGATTTATGCAGCGGACTGCCTTTCTCCCAAAGTGATAAACCGGACAGTATCATGGACCGGTTTTCCCGGTAATCCGTATTTGCAAGGTTGGTTTCACT; site = the 11-nt target
# How it was run: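 In a pooled screen in E. coli, targets were paired with target-binding loops of the IS621 bridge RNA. Each oligo carried a promoter, a target, a barcode and the first 104 bridge RNA bases driven by J23119, and was Gibson-cloned into a vector holding the remaining 73 bp and a T7-inducible recombinase before co-electroporation with a donor plasmid. Duplicate platings went onto chloramphenicol/ampicillin LB agar as the control or onto chloramphenicol/ampicillin/kanamycin with 0.1 mM IPTG. Recombination efficiency is the averaged, control-corrected count per million of barcodes at recombinant junctions, given as log10(CPM+1).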
# 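Further: IS621 recombinase and bridge RNA in Escherichia coli cells.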
row,Sequence,recombinant barcode read abundance (log10)
1,TCGAATGCTTGGGTTCTAACCTGTTGCCT (site TCGAATGCTAG),0.0629
2,TCGAATGCTTGGGTTCTAACCTGTTGCCT (site TCGGATGCTAA),0.0663
3,TCGACGCCTTGGGTTCTAACCTGTTGCTT (site ACGACGTCTAA),0.0317
4,TCGACGCCTTGGGTTCTAACCTGTTGCTT (site TCGACGCCTAA),0.145
5,TCGAGAGCTTGGGTTCTAACCTGTTGCTA (site TCGAGAGCTCG),0.183
6,TCGAGAGCTTGGGTTCTAACCTGTTGCTA (site TCGAGAGCTTA),0.446
7,TCGAGTGCTTGGGTTCTAACCTGTTGCCT (site TCGAGTACTAG),0.187
8,TCGAGTGCTTGGGTTCTAACCTGTTGCCT (site TCGAGTCCTAG),0.19
9,TCGAGTGCTTGGGTTCTAACCTGTTGCCT (site TCGAGTGCTAG),0.0982
10,TCGAGTGCTTGGGTTCTAACCTGTTGCCT (site TCGAGTTCTAG),0
11,TCGCAGACTTGGGTTCTAACCTGTTGCCT (site CCGCAGACTTG),0.54
12,TCGCAGACTTGGGTTCTAACCTGTTGCCT (site TCGCAGACTAG),0.286
13,TCGCATTCTTGGGTTCTAACCTGTTGCAT (site TCGCATTCTAT),0.159
14,TCGCATTCTTGGGTTCTAACCTGTTGCAT (site TCGCGTTCTAA),0.198
15,TCGCGAACTTGGGTTCTAACCTGTTGCCT (site TCGCGAACTAG),0.252
16,TCGCGAACTTGGGTTCTAACCTGTTGCCT (site TCGGGAACTAG),0
17,TCGCGTACTTGGGTTCTAACCTGTTGCAT (site GCTCGTACTAT),0.0605
18,TCGCGTACTTGGGTTCTAACCTGTTGCAT (site TCGCGTACTAT),0.189
19,TCGCGTCCTTGGGTTCTAACCTGTTGCAA (site TAGCGTCCTGT),0.119
20,TCGCGTCCTTGGGTTCTAACCTGTTGCAA (site TCGCGTCCTTT),0.402
21,TCGCGTCCTTGGGTTCTAACCTGTTGCAG (site TCACGTCCTCT),0.231
22,TCGCGTCCTTGGGTTCTAACCTGTTGCAG (site TCGCGTCCTCT),0.379

row,Sequence,recombinant barcode read abundance (log10)
1,TCGCGTGCTTGGGTTCTAACCTGTTGCGG (site CATTCCACTAG),0.0782
2,TCGCGTGCTTGGGTTCTAACCTGTTGCGG (site TCGCGTGCTCC),0.363
3,TCGCGTTCTTGGGTTCTAACCTGTTGCTT (site TCGCATTCTAT),0.217
4,TCGCGTTCTTGGGTTCTAACCTGTTGCTT (site TCGCGTTCTAA),0.677
5,TCGCTAGCTTGGGTTCTAACCTGTTGCCT (site ACGCTAGCTAG),0.0632
6,TCGCTAGCTTGGGTTCTAACCTGTTGCCT (site CCGCTAGCTAG),0.4
7,TCGCTAGCTTGGGTTCTAACCTGTTGCCT (site GCGCTAGCTAG),0.0173
8,TCGCTAGCTTGGGTTCTAACCTGTTGCCT (site TCGCTAGCTAG),0.0976
9,TCGTATACTTGGGTTCTAACCTGTTGCGG (site TAGTATACTCA),0.193
10,TCGTATACTTGGGTTCTAACCTGTTGCGG (site TCGTATACTCC),0.396
11,TCGTGAGCTTGGGTTCTAACCTGTTGCCT (site TAGTGAGCTAG),0.0646
12,TCGTGAGCTTGGGTTCTAACCTGTTGCCT (site TCGTGAGCTAG),0.226
13,TCGTGAGCTTGGGTTCTAACCTGTTGCTG (site GGTGACCCTAT),0.147
14,TCGTGAGCTTGGGTTCTAACCTGTTGCTG (site TCGTGAGCTCA),0.301
15,TCGTGCCCTTGGGTTCTAACCTGTTGCCT (site TCGTGCACTAG),0.0746
16,TCGTGCCCTTGGGTTCTAACCTGTTGCCT (site TCGTGCCCTAG),0.398
17,TCGTGCCCTTGGGTTCTAACCTGTTGCCT (site TCGTGCGCTAG),0.165
18,TCGTGCCCTTGGGTTCTAACCTGTTGCCT (site TCGTGCTCTAG),0.0522
19,TCGTTCGCTTGGGTTCTAACCTGTTGCCG (site GTCAGATCTAA),0.37
20,TCGTTCGCTTGGGTTCTAACCTGTTGCCG (site TCGTTCGCTCG),0.0881
21,TCTAAACCTTGGGTTCTAACCTGTTGCAT (site TCTAAACCTAT),0.197
22,TCTAAACCTTGGGTTCTAACCTGTTGCAT (site TCTAACCCTAT),0.142

row,Sequence,recombinant barcode read abundance (log10)
1,TCTAAACCTTGGGTTCTAACCTGTTGCAT (site TCTAAGCCTAT),0.0795
2,TCTAAACCTTGGGTTCTAACCTGTTGCAT (site TCTAATCCTAT),0.229
3,TCTAAGACTTGGGTTCTAACCTGTTGCGC (site CTACCCTCTAG),0.0242
4,TCTAAGACTTGGGTTCTAACCTGTTGCGC (site TCTAAGACTGC),1.26
5,TCTAAGCCTTGGGTTCTAACCTGTTGCAT (site TCTAAACCTAT),0.152
6,TCTAAGCCTTGGGTTCTAACCTGTTGCAT (site TCTAACCCTAT),0.259
7,TCTAAGCCTTGGGTTCTAACCTGTTGCAT (site TCTAAGCCTAT),0.531
8,TCTAAGCCTTGGGTTCTAACCTGTTGCAT (site TCTAATCCTAT),0.0292
9,TCTACCTCTTGGGTTCTAACCTGTTGCCT (site TCTACATCTAG),0.0227
10,TCTACCTCTTGGGTTCTAACCTGTTGCCT (site TCTACCTCTAG),1.19
11,TCTACCTCTTGGGTTCTAACCTGTTGCCT (site TCTACGTCTAG),0.102
12,TCTACCTCTTGGGTTCTAACCTGTTGCCT (site TCTACTTCTAG),0.0484
13,TCTACGTCTTGGGTTCTAACCTGTTGCCT (site TCTACATCTAG),0.0403
14,TCTACGTCTTGGGTTCTAACCTGTTGCCT (site TCTACCTCTAG),0.00686
15,TCTACGTCTTGGGTTCTAACCTGTTGCCT (site TCTACGTCTAG),0.168
16,TCTACGTCTTGGGTTCTAACCTGTTGCCT (site TCTACTTCTAG),0.126
17,TCTCACCCTTGGGTTCTAACCTGTTGCCT (site TCTCACCCTAG),0.516
18,TCTCACCCTTGGGTTCTAACCTGTTGCCT (site TCTGATCCTAG),0.0773
19,TCTCATTCTTGGGTTCTAACCTGTTGCGT (site TCTAATTCTAC),0.0146
20,TCTCATTCTTGGGTTCTAACCTGTTGCGT (site TCTCATTCTAC),0.937
21,TCTCATTCTTGGGTTCTAACCTGTTGCGT (site TCTGATTCTAC),0.163
22,TCTCATTCTTGGGTTCTAACCTGTTGCGT (site TCTTATTCTAC),0.0829

row,Sequence,recombinant barcode read abundance (log10)
1,TCTCCGCCTTGGGTTCTAACCTGTTGCCT (site TCTCAGCCTAG),0.139
2,TCTCCGCCTTGGGTTCTAACCTGTTGCCT (site TCTCCGCCTAG),0.431
3,TCTCCGCCTTGGGTTCTAACCTGTTGCCT (site TCTCGGCCTAG),0.0901
4,TCTCCGCCTTGGGTTCTAACCTGTTGCCT (site TCTCTGCCTAG),0.0964
5,TCTCGATCTTGGGTTCTAACCTGTTGCAT (site CCTCGATCTAT),0.0525
6,TCTCGATCTTGGGTTCTAACCTGTTGCAT (site TCTCGATCTAT),0.273
7,TCTCGTCCTTGGGTTCTAACCTGTTGCTA (site AGCAACACTCT),0.226
8,TCTCGTCCTTGGGTTCTAACCTGTTGCTA (site TCTCGTCCTTA),0.0623
9,TCTCTGCCTTGGGTTCTAACCTGTTGCCT (site TCTCAGCCTAG),0.277
10,TCTCTGCCTTGGGTTCTAACCTGTTGCCT (site TCTCCGCCTAG),1.15
11,TCTCTGCCTTGGGTTCTAACCTGTTGCCT (site TCTCGGCCTAG),0.108
12,TCTCTGCCTTGGGTTCTAACCTGTTGCCT (site TCTCTGCCTAG),0.208
13,TCTGAAACTTGGGTTCTAACCTGTTGCTT (site GACACCTCTCG),0.0724
14,TCTGAAACTTGGGTTCTAACCTGTTGCTT (site TCTGAAACTAA),0.314
15,TCTGAGGCTTGGGTTCTAACCTGTTGCTG (site TCAGAGGCTCA),0.263
16,TCTGAGGCTTGGGTTCTAACCTGTTGCTG (site TCCGAGGCTCA),0.129
17,TCTGAGGCTTGGGTTCTAACCTGTTGCTG (site TCGGAGGCTCA),0.0364
18,TCTGAGGCTTGGGTTCTAACCTGTTGCTG (site TCTGAGGCTCA),0.455
19,TCTGCGACTTGGGTTCTAACCTGTTGCCT (site TCAGCGACTAG),0.0737
20,TCTGCGACTTGGGTTCTAACCTGTTGCCT (site TCCGCGACTAG),0.455
